Experimental findings from patent US7465748B2, “Amide derivative” (Astellas Pharma Inc., priority 2003, dated 2008) are described below.

Assay [1] relates to HSV-1 strain WT-51. Briefly: Cutaneous HSV-1 infection mouse model. The format is in vivo, HR-1 hairless mouse. The settings on record: 10 mg/kg twice a day for 5 days from 3 hours after infection, lesion score for 17 days. The protocol: Using a cutaneous HSV-1 infection mouse model prepared in accordance with the method of H. Machida et al. (Antiviral Res., 1992, 17, 133-143), in vivo activity of the compounds of the invention was tested. The skin of each HR-1 hairless mouse [female, 7 weeks of age] was scratched lengthwise and breadthwise several times using a needle and a virus suspension (HSV-1 strain WT-51, 1.5×10^4 PFU/15 μl) was droped to the scarified region for infection, while anesthetized with diethyl ether
Tested compounds were administered orally as a methyl cellulose suspension, except for compounds marked with asterisk which were dissolved in 20% Cremophor EL (Nakarai Tesuku)/20% polyethylene glycol (PEG) 400/60% H2O solution, starting at 3 hours after the infection, and then at a dose of 10 mg/kg twice a day for 5 days. The symptom of the skin lesion caused by HSV-1 infection were classified in the following scores for 17 days:
Score 0: no signs of infection.
Score 1: localized, barely perceptible small vesicles.
Score 2: slight vesicle spread.
Score 3: large patches of vesicles formed.
Score 4: zosteriform vesicles.
Score 5: large patches of ulcers formed.
Score 6: zosteriform with severe large ulcers.
Score 7: hind limb paralysis or death.
The AUC value was calculated from each group's mean disease score, and the disease inhibitory rate of the group administered with each test compound to the placebo group was calculated using the AUC.

In assay [2] the test system is HSV-1 (strain KOS). The assay is described as follows: Anti-HSV-1 activity assay (MTT, MRC-5 cells). The format is cell-based. To be noted: HSV-1 strain KOS 50 TCID50/100 μl, 5 days culture, read-out: EC50 value (suppression of cellular death of MRC-5 cells via HSV-1 replication). As to the method:
10,000 MRC-5 cells were inoculated and cultured in a 96-well microtiter plate, using the growth culture medium [Eagle MEM (Nissui) supplemented with 10% FBS] in 5% CO2 at 37° C. for 4 to 5 days until a monolayer was formed. After the cells were washed with the maintenance culture medium [Eagle MEM supplemented with 2% (v/v) FBS], 100 μl of the maintenance culture medium dissolving therein an appropriate concentration of a test reagent was added to each well. Immediately after the test drug was added, an HSV-1 (strain KOS) solution was inoculated at 50 TCID50 (50% tissue culture infectious dose)/100 μl. After the cells were cultured in 5% CO2 at 37° C. for 5 days, 20 μl of MTT solution [3-(4,5-dimethyl-2-thiazolyl)-2,5-diphenyl-2H-tetrazolium bromide; Sigma] (diluted with PBS to 7.5 mg/ml) was added to each well, for another 24-hour incubation. After the culture medium was discarded, 100 μl of a solvent (prepared by adding 10% Triton X 100 (v/v) and 0.4% hydrochloric acid to isopropanol) was added to each well, to solubilize the generated formazan. The absorbance at 540 nm or 690 nm was measured with a microplate reader. Based on the suppression ratio (%) of the cellular death of the MRC-5 cell via HSV-1 replication, the EC50 value of the test drug was calculated.

Assay [3] deals with VZV (strain CaQu). The assay is described as follows: Anti-VZV activity assay (plaque reduction in HEF cells). The format is cell-based, varicella zoster virus (VZV). To be noted: human embryonic fibroblast (HEF) cells infected with VZV strain CaQu, plaque count after 3 to 4 days. As to the method:
This assay was carried out in accordance with the method described by Shigeta S. (The Journal of Infectious Diseases, 147, 3, 576-584 (1983). Specifically, human embryonic fibroblast (HEF) cells were inoculated in a 96-well microtiter plate, using a growth culture medium [Eagle MEM (Nissui) supplemented with 10% (v/v) fetal bovine serum (FBS; Sigma)], for culturing in 5% CO2 at 37° C. for 4 days until a monolayer was formed. After washing the cells with a maintenance medium, the cells were inoculated with 100 μl/well of VZV (strain CaQu) which had been diluted to 20 to 30 pfu/100 μl with the maintenance medium (Eagle MEM supplemented with 2% FBS). The plate was centrifuged at 2,000 rpm for 20 minutes at room temperature and then incubated at 37° C. for 3 hours in an atmosphere of 5% CO2 to infect with VZV. After washing three times with the maintenance medium, 100 μl of each test drug diluted to an appropriate concentration with the maintenance medium was added to each well. After culturing the cells at 37° C. for 3 to 4 days in an atmosphere of 5% CO2, the cells were fixed with 100 μl/well of 10% formalin/PBS for 2 to 3 hours. […] After discarding the fixing solution and culture supernatant and subsequently washing the plate with water, a staining solution (0.025% Crystal Violet) was added at 50 μl/well for staining for 2 to 3 minutes, and then, the plate was washed with water and dried at 37° C. Cellular death is induced in the HEF cells infected with VZV, so that plaques of the dead cells are formed in the monolayer of the HEF cells.

Setting [4] is: oral, methyl cellulose suspension.
Setting [5] is: asterisk: oral, dissolved in 20% Cremophor EL/20% PEG 400/60% H2O solution.
The mark [6] stands for this setting: Human alphaherpesvirus 1, MRC5, 120 h.
Where [7] appears, read: Human alphaherpesvirus 3, read-out: EC50 value (concentration to inhibit 50% of the plaques).

Like-named read-outs stand apart in the source and are kept apart here.

As for `Nc1nc(-c2ccc(NC(=O)CN(C(=O)c3ccc(F)cc3)c3ccc4ncsc4c3)cc2)cs1` [Comparative Compound A, reference compound], the “Inhibitory activity (%) (disease inhibitory rate vs placebo from AUC of mean disease score)” value (from here on “Inhibitory activity (%)”) in assay [1] (setting [4]) amounted to 38%.

In the case of `COc1ccc(N(CC(=O)Nc2ccc(-c3csc(N)n3)cc2)C(=O)C2CCS(=O)(=O)CC2)cc1` [Comparative Compound B, reference compound], in assay [1] (setting [4]), the “Inhibitory activity (%)” value amounted to 2%. For `COc1ccc(N(CC(=O)Nc2ccc(-c3csc(N)n3)cc2)C(=O)C2CCC(O)CC2)cc1` (stereo not drawn) [Comparative Compound C, reference compound], the “Inhibitory activity (%)” value in assay [1] (setting [4]) is given as 44%. On the same count and under the same terms, with `Nc1nc(-c2ccc(NC(=O)CN(C(=O)C3CCS(=O)(=O)CC3)c3ccc4c(c3)CCC4)cc2)cs1` [Comparative Compound D, reference compound] the figure was 43%. With `Cc1cccc(C)c1N(CC(=O)Nc1ccc(-c2cocn2)cc1)C(=O)C1CCS(=O)(=O)CC1` [Example 1, N-(2,6-dimethylphenyl)-N-(2-([4-(1,3-oxazol-4-yl)phenyl]amino)-2-oxoethyl)tetrahydro-2H-thiopyran-4-carboxamide 1,1-dioxide], in assay [1] (setting [5]), the “Inhibitory activity (%)” value was “*93%”.

As for `Cc1ccc(N(CC(=O)Nc2ccc(-c3cocn3)cc2)C(=O)C2CCS(=O)(=O)CC2)c(C)c1` [Example 6, N-(2,4-dimethylphenyl)-N-(2-{[4-(1,3-oxazol-4-yl)phenyl]amino}-2-oxoethyl)tetrahydro-2H-thiopyran-4-carboxamide 1,1-dioxide], the “Inhibitory activity (%)” value in assay [1] (setting [4]) is 92%. Consider `O=C(CN(C(=O)C1CCS(=O)(=O)CC1)c1ccc2c(c1)CCC2)Nc1ccc(-c2cocn2)cc1` [Example 11, N-(2,3-dihydro-1H-inden-5-yl)-N-(2-{[4-(1,3-oxazol-4-yl)phenyl]amino)-2-oxoethyl)tetrahydro-2H-thiopyran-4-carboxamide 1,1-dioxide], for which the EC50 stood at 40 nM in assay [2] (setting [6]) and 60 nM in assay [3] (setting [7]). Take `Cc1ccc(N(CC(=O)Nc2ccc(-c3cocn3)cc2)C(=O)C2CCS(=O)(=O)CC2)cc1F` [Example 14, N-(3-fluoro-4-methylphenyl)-N-(2-{[4-(1,3-oxazol-4-yl)phenyl]amino)-2-oxoethyl)tetrahydro-2H-thiopyran-4-carboxamide 1,1-dioxide]: the “Inhibitory activity (%)” value in assay [1] (setting [4]) stood at 98%.

As to `Cc1cccc(C)c1N(CC(=O)Nc1ccc(-c2ncon2)cc1)C(=O)C1CCS(=O)(=O)CC1` [Example 27, N-(2,6-dimethylphenyl)-N-(2-([4-<(1,2,4-oxadiazol-3-yl)phenyl]amino}-2-oxoethyl)tetrahydro-2H-thiopyran-4-carboxamide 1,1-dioxide], the values for the EC50 in assay [2] and in assay [3] (read-out: EC50 value (concentration to inhibit 50% of the plaques)) were 60 nM and 100 nM, respectively. In the case of `Cc1cc(N(CC(=O)Nc2ccc(-c3ncon3)cc2)C(=O)C2CCS(=O)(=O)CC2)ccc1Cl` [Example 37, N-(4-chloro-3-methylphenyl)-N-(2-{[4-(1,2,4-oxadiazol-3-yl)phenyl]amino)-2-oxoethyl)tetrahydro-2H-thiopyran-4-carboxamide 1,1-dioxide], in assay [1] (setting [4]), the “Inhibitory activity (%)” value came to 100%. `Cc1cccc(C)c1N(CC(=O)Nc1ccc(-n2nccn2)cc1)C(=O)C1CCS(=O)(=O)CC1` [Example 98]: the “Inhibitory activity (%)” value in assay [1] (setting [5]) was “*95%”. For the same compound, the EC50 in assay [2] (setting [6]) worked out at 42 nM; in assay [3] (setting [7]) it was 140 nM. `Cc1cccc(C)c1N(CC(=O)Nc1ccc(-c2ccccn2)cc1)C(=O)C1CCS(=O)(=O)CC1` [Example 125]: in assay [1] (setting [5]), the “Inhibitory activity (%)” value was “*80%”. The EC50 came out at 28 nM in assay [2] (setting [6]) and 190 nM in assay [3] (setting [7]).
